Experimental findings from article PMC8304462, “Isolation, Structural Characterization and Antidiabetic Activity of New Diketopiperazine Alkaloids from Mangrove Endophytic Fungus Aspergillus sp. 16-5c” (Marine Drugs, 2021) are described below.

For experiment [1], the target named is T1, PTP1B (Homo sapiens, UniProt P18031).
T1 sequence (P18031 1-435): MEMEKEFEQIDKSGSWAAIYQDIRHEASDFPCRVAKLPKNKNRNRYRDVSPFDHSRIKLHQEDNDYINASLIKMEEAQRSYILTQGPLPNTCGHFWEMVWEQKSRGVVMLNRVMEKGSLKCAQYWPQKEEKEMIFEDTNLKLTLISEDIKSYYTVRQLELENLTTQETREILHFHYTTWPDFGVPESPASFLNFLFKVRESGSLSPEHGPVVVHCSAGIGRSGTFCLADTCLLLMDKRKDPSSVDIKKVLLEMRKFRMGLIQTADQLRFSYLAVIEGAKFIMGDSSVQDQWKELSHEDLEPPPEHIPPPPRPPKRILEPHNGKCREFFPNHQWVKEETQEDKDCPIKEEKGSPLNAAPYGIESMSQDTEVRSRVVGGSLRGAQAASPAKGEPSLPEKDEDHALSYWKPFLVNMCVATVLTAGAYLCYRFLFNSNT
The experiment is described as follows: PTP1B inhibitory activity (p-NPP hydrolysis). To be noted: screening concentration 100 μg/mL. Format: biochemical. The protocol: PTP1B inhibitory activity was determined by measuring the enzymatic hydrolysis rate of p-nitrophenyl phosphate (p-NPP) as reported in the study. This assay was performed at 37 °C with a final volume of 100 μL, using a Tris-HCl buffer (25 mM Tris-HCl, 1 mM EDTA, 1 mM DTT, pH 7.5). […] After 30 min, the reaction ended by adding 50 μL 2.5 M NaOH solution.

Experiment [2] deals with α-glucosidase. Briefly: α-glucosidase inhibition assay (p-NPG, 96-well microplate). The experiment is classed as biochemical. To be noted: 37 °C, pH 6.86, substrate p-NPG. As for the experimental part:
The α-glucosidase inhibition assay was performed in a 96-well microplate reader method as described in a previous report. The α-glucosidase assay was performed at 37 °C with a final volume of 200 μL. […] 20 μL substrate p-nitrophenyl-α-D-glucopyranoside (p-NPG) was added to each well to start the reaction. The reaction was incubated at 37 °C for 15 min and stopped by the addition of 50 μL 0.4 M Na2CO3.

Some results are limits rather than exact numbers.

Broadly, the IC50 is the concentration that gives 50% inhibition. `O=C1NC(O)c2nc3ccccc3c(=O)n2C1Cc1ccc(O)cc1` (centres unmarked) [Compound 6, aspergiamide F]: the “PTP1B (Inhibition Ratio/%)” value in experiment [1] is recorded as less than 10%. Also, the IC50 in experiment [2] worked out at 267 µM.

For `C=CC(C)(C)c1[nH]c2ccccc2c1C(O)C1NC(=O)C2CCCN2C1=O` (centres unmarked) [Compound 4, aspergiamide D], the “PTP1B (Inhibition Ratio/%)” value in experiment [1] is less than 10%. Also, the IC50 in experiment [2] came out at 144 µM.

`C=CC(C)(C)c1[nH]c2ccccc2c1/C=C1\NC(=O)C2CCCN2C1=O` (centres unmarked) [Compound 10, brevianamide W]: the “PTP1B (Inhibition Ratio/%)” value in experiment [1] is recorded as less than 10%. For the same molecule, in experiment [2], the IC50 was found to be 40.7 µM.

With `C=CC(C)(C)c1[nH]c2ccccc2c1CC1NC(=O)C2CCCN2C1=O` (stereo not drawn) [Compound 13, epi-deoxybrevianamide E], in experiment [1], the “PTP1B (Inhibition Ratio/%)” value is recorded as less than 10%. The midpoint of inhibition in experiment [2], the IC50, lay at 480 µM.

Take `CC(C)=CCn1cc(CC2NC(=O)C3CCCN3C2=O)c2ccccc21` [Compound 11, N-Prenyl-cyclo-L-tryptophyl-L-proline]: the “PTP1B (Inhibition Ratio/%)” value in experiment [1] is less than 10%. The molecule also yielded an IC50 in experiment [2] of 37.5 µM.

Consider `C=CC(C)(C)c1[nH]c2ccccc2c1C=C1NC(=O)C2CC(O)CN2C1=O` (centres unmarked) [Compound 3, aspergiamide C], for which the “PTP1B (Inhibition Ratio/%)” value in experiment [1] was less than 10%. In experiment [2], this molecule registered an IC50 of 83.9 µM.

For `O=C1N[C@@H](Cc2c[nH]c3ccccc23)C(=O)N2CCC[C@@H]12` [Compound 12, brevianamide F], the “PTP1B (Inhibition Ratio/%)” value in experiment [1] is less than 10%. This molecule showed an IC50 in experiment [2] of 1090 µM.

Consider `C=CC(C)(C)c1[nH]c2ccccc2c1/C=C1\NC(=O)C2(OC)CCCN2C1=O` (centres unmarked) [Compound 8, brevianamide R], for which the “PTP1B (Inhibition Ratio/%)” value in experiment [1] is less than 10%. In addition, in experiment [2], the IC50 was 364 µM.

Take `C=CC(C)(C)c1[nH]c2ccccc2c1C(OC)C1NC(=O)C2CCCN2C1=O` (centres unmarked) [Compound 5, aspergiamide E]: the “PTP1B (Inhibition Ratio/%)” value in experiment [1] is less than 10%. The 50% inhibitory concentration (IC50) in experiment [2] stood at 1090 µM.

For `C=CC(C)(C)c1[nH]c2ccccc2c1C=C1NC(=O)C(CCC(=O)O)NC1=O` (centres unmarked) [Compound 2, aspergiamide B], the “PTP1B (Inhibition Ratio/%)” value in experiment [1] is reported as less than 10%. Inhibition in experiment [2] was half-maximal at 131 µM (IC50).

For `O=C1N[C@@H](Cc2c[nH]c3ccccc23)C(=O)N[C@H]1Cc1ccccc1` [Compound 14, cyclo-(tryptophyl-phenylalanyl)], the “PTP1B (Inhibition Ratio/%)” value in experiment [1] is less than 10%. The IC50 in experiment [2] amounted to 353 µM.

Regarding `O=C1N[C@@H](O)c2nc3ccccc3c(=O)n2[C@H]1Cc1ccccc1` [Compound 15, brevianamide M], the “PTP1B (Inhibition Ratio/%)” value in experiment [1] is less than 10%. The same molecule had an IC50 in experiment [2] of 67.8 µM.

In the case of `O=C1NC(=O)[C@H](Cc2ccccc2)n2c1nc1ccccc1c2=O` [Compound 16, brevianamide N], the “PTP1B (Inhibition Ratio/%)” value in experiment [1] is recorded as less than 10%. In addition, 363 µM corresponded to half-maximal inhibition in experiment [2] (IC50).

Turning to `C=CC(C)(C)c1[nH]c2ccccc2c1C=C1NC(=O)C(CCCO)NC1=O` (centres unmarked) [Compound 1, aspergiamide A], the “PTP1B (Inhibition Ratio/%)” value in experiment [1] is 29%. Besides, in experiment [2], the half-inhibitory concentration (IC50) was 18.2 µM.

With `C=CC(C)(C)c1[nH]c2ccccc2c1/C=c1\[nH]c(=O)c2n(c1=O)CCC=2` [Compound 9, brevianamide K], the “PTP1B (Inhibition Ratio/%)” value in experiment [1] is reported as less than 10%. Also, in experiment [2], it took 7.6 µM to reach half-maximal inhibition (IC50).

As to `C=CC(C)(C)c1[nH]c2ccccc2c1/C=C1\NC(=O)C2(O)CCCN2C1=O` (centres unmarked) [Compound 7, brevianamide Q], the “PTP1B (Inhibition Ratio/%)” value in experiment [1] was less than 10%. Further, the half-inhibitory concentration (IC50) in experiment [2] turned out to be 198 µM.
